According to patent US5534498A, “Trypsin inhibitors” (Corvas International, Inc., priority 1993, dated 1996):
Residues, ends and D or L forms follow the SMILES beside them. *: point of attachment. Boc = CC(C)(C)OC(=O)*

Legend:
bovine trypsin = molecular target: T1, bovine trypsin (Bos taurus, UniProt P00760); assay: Trypsin assay, IC50 (S-2222 substrate); type: biochemical
T1 sequence (P00760 24-246): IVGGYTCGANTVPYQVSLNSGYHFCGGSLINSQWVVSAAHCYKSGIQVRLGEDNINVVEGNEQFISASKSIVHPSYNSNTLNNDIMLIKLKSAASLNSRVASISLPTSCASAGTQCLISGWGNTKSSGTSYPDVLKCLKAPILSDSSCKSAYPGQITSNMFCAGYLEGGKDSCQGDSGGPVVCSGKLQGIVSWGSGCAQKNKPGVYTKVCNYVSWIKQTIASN
Method: (§1) The specificity of the peptide aldehydes (8 through 12) was determined in vitro by measurement of their IC50 against other enzymes involved in hemostasis. A specific concentration of enzyme and its substrate were challenged with varying concentrations of inhibitor. […] Specific assay procedures used are presented below.
(§2) 96-well microtiter plates were prepared for use in these assays by incubating each well with 300 μL 1% bovine serum albumin (in deionized water) for 30 minutes at 37° C., then washing three times with deionized water.
The substrate was made up in deionized water prior to use.

[1] = test system: caerulein-induced pancreatitis in balb/c mice; assay: Animal model for pancreatitis: caerulein-induced pancreatitis, serum amylase; type: in vivo; conditions: caerulein 3 × 100 μg/kg IP, inhibitor 50 mg/kg IP, blood 4 hours after last inhibitor injection, saline + caerulein 64.4 ± 14.4, control 10.4 ± 1.6
Method: The efficacy of the compounds of the present invention as a prophylactic treatment for pancreatitis is assessed in vivo using the chemically-induced animal model of Niederau et al., Gastroenterology 88:1192-1204 (1985).
Pancreatitis was induced in fasting male balb/c mice weighing between 18 to 20 g by giving them three IP injections of caerulein, with each dose at 100 μg/kg body weight. The injections of each were given at two hour intervals over a 6 hour period. The ability of N-Boc-L-Asp-Pro-Arg-al (compound 9) to inhibit the induced pancreatitis was tested by injection into caerulein-treated mice. The inhibitor was dissolved into TBS, then injected IP into the mice. The first injection was given 1/4 hour prior to the caerulein treatment, then one hour after each caerulein injection. Inhibitor dose tested was 50 mg/kg body weight.
A blood serum sample was drawn and tested for amylase concentration. The blood sample was obtained by periorbital bleeding into heparized tubes 4 hours after the last injection of inhibitor. After centrifuging to remove the blood cells, the serum was the diluted 1:10 in TBS and assayed with Sigma Diagnostics Amylase reagent. The kinetic change in absorbance was measured at 405 nm for 1 minute, then was convereted into U/ml amylase activity.

human Factor Xa = molecular target: T2, human Factor Xa (Homo sapiens, UniProt P00742); assay: Factor Xa assay (Pefachrome Xa substrate); type: biochemical
T2 construct: 50 μL 30 nM human Factor Xa
Method: as §1, §2
Enzyme activity was determined using as substrate, Pefachrome Xa [N-methoxycarbonyl-D-cyclohexylalanyl-L-glycyl-L-arginine p-niroanilide acetate], purchased from Centerchem, Inc. The substrate was made up in deionized water prior to use.

T2 sequence (P00742 235-488 limits assumed): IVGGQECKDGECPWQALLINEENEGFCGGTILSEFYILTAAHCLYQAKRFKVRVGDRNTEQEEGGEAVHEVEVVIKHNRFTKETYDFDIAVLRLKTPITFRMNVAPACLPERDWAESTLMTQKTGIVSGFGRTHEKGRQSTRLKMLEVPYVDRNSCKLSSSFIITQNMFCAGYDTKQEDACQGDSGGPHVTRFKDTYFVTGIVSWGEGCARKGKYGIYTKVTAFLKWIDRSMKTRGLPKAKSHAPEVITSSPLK
T2 sequence (P00742 41-179 partner limits assumed): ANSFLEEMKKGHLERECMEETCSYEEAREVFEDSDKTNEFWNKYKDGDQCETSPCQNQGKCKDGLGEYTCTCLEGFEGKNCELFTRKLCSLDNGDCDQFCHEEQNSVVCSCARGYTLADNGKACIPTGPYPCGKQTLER

Q: Which results are given for `CC(C)(C)OC(=O)N[C@@H](CC(=O)O)C(=O)N1CCC[C@H]1C(=O)N[C@H](C=O)CCCNC(=N)N` [Compound 9, N-t-butyloxycarbonyl-L-Asp-L-Pro-L-argininal] (Boc-Asp-Pro-Arg-aldehyde)?
A: IC50 (bovine trypsin; 30 min preincubation, room temperature, tested 0.025-25 μM): 14 nM; Calculated % Selectivity Trypsin (bovine trypsin; trypsin relative to itself (reference, 100 by definition)): 100%; Amylase Activity, Mean ± S.D [1]: 40.8 ± 5.2 U/ml; IC50 (human Factor Xa; 30 min preincubation, room temperature, tested 0.025-25 μM, Inact. = no inhibition at highest concentration): > 25000 nM; Calculated % Selectivity Xa (human Factor Xa; [IC50 for Trypsin/IC50 for other enzyme]×100, lower = more trypsin selective): < 0.06%
